Reference: patent publication EP4768485A1 (Guangzhou Baiyunshan Pharmaceutical Holdings Co., Ltd. …, priority 2023, dated 2025)
In brackets after ≈: the same amount, converted by molar mass.

Experiments:
[1] = Pharmacokinetic study in rats; assay type: in vivo, Sprague-Dawley (SD) rats; settings: oral gavage
Procedure: In this test experiment, a pharmacokinetic study of the compound in rats was conducted.
Twelve healthy adult female Sprague-Dawley (SD) rats (purchased from Beijing Vital River Laboratory Animal Technology Co., Ltd., China) with an average body weight of about 180-220 g were selected, and divided into four groups (n=3 per group). Two groups were administered via tail vein injection, while the other two groups were administered via oral gavage. Compound 1b was dissolved in a vehicle containing 5% DMSO, 30% PEG400, and 65% H2O, and Debio-1450 was dissolved in physiological saline, both of which were formed into a stable clear solution for later use. Animals were fasted for 12 hours before administration and resumed normal feeding 2 hours post administration. Then, blood samples were collected through the jugular vein at the following time points: 0.083 h, 0.25 h, 0.5 h, 1 h, 2 h, 4 h, 8 h, 24 h (tail vein injection) and 0.25 h, 0.5 h, 1 h, 2 h, 4 h, 8 h, 24 h (oral gavage administration), respectively, with a blood collection volume of about 200-400 µL. Whole blood collected at each time point was immediately transferred into an anticoagulant tube containing K2EDTA, then stored on ice in an insulated container. All samples were centrifuged within 15 minutes at 4600 r/min and 4°C for 5 minutes to separate plasma. The concentration of the compound in the plasma of each rat was determined using LC-MS/MS method, and the pharmacokinetic parameter was calculated from the drug concentration-time profile. Table 4 Oral Pharmacokinetic Parameters of Compound 1b/Debio-1450 In Rats

[2] = system: MSSA ATCC 29213; experiment: MIC, agar plate two-fold dilution; assay type: cell-based, Staphylococcus aureus; settings: MSSA ATCC 29213; MHA, 37°C, 16-20 hours
Procedure: (§1) In this test example, the minimum inhibitory concentration (MIC) of the compound was determined.
(§2) The test drug concentration was set to be within a range of 0.008 µg/mL to 128 µg/mL in a two-fold serial dilution using an agar plate two-fold dilution method. The sample was dissolved in DMSO to prepare a 2 mL solution with a concentration of 1.92 mg/mL. The control group was prepared in sterile distilled water to obtain a concentration of 1.92 mg/mL. 1 mL of the prepared drug solution was added to a sterile culture dish, followed by addition of 14 mL of MHA culture medium at approximately 60°C. After thorough mixing, 1 mL of sterilized distilled water was added for two-fold dilution, resulting in a final drug concentration of 64 µg/mL, 32 µg/mL, 16 µg/mL, 8 µg/mL, 4 µg/mL, 2 µg/mL, 1 µg/mL, 0.5 µg/mL, 0.25 µg/mL, 0.125 µg/mL, 0.06 µg/mL, 0.03 µg/mL, 0.015 µg/mL, and 0.008 µg/mL (wherein the final concentrations of samples 2, 4, and 9 were diluted downward starting from 128 µg/mL), and set aside for later use. The prepared bacterial suspension was inoculated onto drug-containing MHA culture medium with a multi-point inoculator, with an inoculation volume of approximately 10^4 CFU per point. A sterile control group (1 mL DMSO + 14 mL MHA culture medium and 1 mL sterile distilled water + 14 mL MHA culture medium) was set up.

[3] = system: VRSA VRS 1; experiment: MIC, agar plate two-fold dilution; assay type: cell-based, Staphylococcus aureus; settings: VRSA VRS 1; MHA, 37°C, 16-20 hours
Procedure: as §1, §2

[4] = system: MRSA NRS 384; experiment: MIC, agar plate two-fold dilution; assay type: cell-based, Staphylococcus aureus; settings: MRSA NRS 384; MHA, 37°C, 16-20 hours
Procedure: as §1, §2

[5] = target: SaFabI (Staphylococcus aureus, UniProt Q6GI75); experiment: FabI enzymatic activity by NADH/NADPH oxidation (fluorescence), SaFabI; settings: SaFabI IC50, 15 nmol/L SaFabI; trans-octenoyl-CoA and NADPH; pH 6.5
Sequence of SaFabI (Q6GI75 whole entry): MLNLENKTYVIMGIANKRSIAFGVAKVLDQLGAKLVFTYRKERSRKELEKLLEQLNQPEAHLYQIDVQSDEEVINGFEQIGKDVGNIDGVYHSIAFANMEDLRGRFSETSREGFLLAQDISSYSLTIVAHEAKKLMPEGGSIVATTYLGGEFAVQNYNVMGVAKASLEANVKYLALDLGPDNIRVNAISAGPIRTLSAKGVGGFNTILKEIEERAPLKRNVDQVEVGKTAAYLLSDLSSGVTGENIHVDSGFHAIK
Procedure: (§4) In this test example, the enzymatic activity was evaluated by monitoring the oxidation of cofactor NADH/NADPH using a microplate reader.
(§5) The compound was dissolved in DMSO and added to a 384-well plate using ECHO665. Serial 3-fold or 4-fold dilutions were prepared to generate 10 dose points with two replicates per concentration, ensuring a final DMSO concentration 1% in each reaction well. Then, a FabI protein solution was added, and the protein was prepared in a buffer containing 100 mmol/L PBS, 0.05% Tween-20, and 150 mmol/L NaCl (pH 6.5), so that the final concentrations of SaFabI and EcFabI proteins were 15 nmol/L and 9 nmol/L, respectively. The prepared 5 µL of 15 nmol/L SaFabI and 9 nmol/L EcFabI were added to a 384-well assay plate, and centrifuged at 1000 rpm for 1 minute. Then, the plate was pre-incubated in a temperature-controlled shaker at 30 °C for 20 minutes. Moreover, substrates trans-octenoyl-CoA, NADPH, trans-dodecenoyl-CoA, and NADH were diluted in a buffer containing 100 mmol/L PBS, 0.05% Tween-20, and 15 0 mmol/L NaCl (pH 6.5) respectively, and their concentrations were adjusted to 300 µmol/L, 300 µmol/L, 600 µmol/L, and 150 µmol/L, respectively. For SaFabI, 5 µL of 300 µmol/L trans-octenoyl-CoA and 5 µL of 300 µmol/L NADPH were added to initiate the reaction. Immediately after initiation, the plate was placed into the microplate reader, and fluorescence signals (Ex 340 nm/Em 460 nm) were recorded every 0.5 minutes for at least 10 minutes. Similarly, 5 µL of 600 µmol/L trans-dodecenoyl-CoA and 5 µL of 150 µmol/L NADH were added to initiate reaction of EcFabI. Immediately after initiation, the plate was immediately placed into the microplate reader, and fluorescence signals (Ex 340 nm/Em 460 nm) were recorded every 0.5 minutes for at least 10 minutes. The reaction rate (fluorescence signal per minute) of each well was calculated from the fluorescence values. The inhibitory effect of the compound on the protein was then calculated based on the reaction rate, and the IC50 value for inhibition of enzyme activity by the compound was determined by fitting the data using GraphPad Prism 6 with log (inhibitor) vs. response variable slope model. The fitting equation is: Y=Bottom + (Top-Bottom)/(1+10^((LogIC50-X)*HillSlope)), wherein Y represents the known percentage of residual enzyme activity, and X represents the known Log concentration of the compound.

[6] = target: EcFabI (Escherichia coli, UniProt P0AEK4); experiment: FabI enzymatic activity by NADH/NADPH oxidation (fluorescence), EcFabI; assay type: biochemical; settings: 9 nmol/L EcFabI; trans-dodecenoyl-CoA and NADH; pH 6.5
Sequence of EcFabI (P0AEK4 whole entry): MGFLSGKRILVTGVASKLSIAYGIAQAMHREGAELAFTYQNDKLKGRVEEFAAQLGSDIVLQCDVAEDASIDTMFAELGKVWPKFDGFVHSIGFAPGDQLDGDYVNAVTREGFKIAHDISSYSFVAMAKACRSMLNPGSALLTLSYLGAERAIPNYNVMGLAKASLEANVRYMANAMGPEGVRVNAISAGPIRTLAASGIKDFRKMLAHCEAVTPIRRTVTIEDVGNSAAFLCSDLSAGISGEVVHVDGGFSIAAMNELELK
Procedure: as §4, §5

[7] = system: Acinetobacter baumannii ATCC17979; experiment: MIC, antibacterial spectrum; assay type: cell-based
Procedure: as §2
(§3) Referring to the minimum inhibitory concentration test method mentioned above, the antibacterial spectrum of compound 1b was tested. […] Table 3 Antibacterial Spectrum Testing of Compound 1b MIC (µg/mL)

[8] = system: Haemophilus influenzae ATCC29213; experiment: MIC, antibacterial spectrum; assay type: cell-based
Procedure: as §2, §3

[9] = system: Staphylococcus hominis ATCC27844; experiment: MIC, antibacterial spectrum; assay type: cell-based
Procedure: as §2, §3

[10] = system: Moraxella catarrhalis ATCC43617; experiment: MIC, antibacterial spectrum; assay type: cell-based
Procedure: as §2, §3

[11] = system: Klebsiella pneumoniae ATCC2055; experiment: MIC, antibacterial spectrum; assay type: cell-based
Procedure: as §2, §3

[12] = system: Pseudomonas aeruginosa ATCC12055; experiment: MIC, antibacterial spectrum; assay type: cell-based
Procedure: as §2, §3

[13] = system: Salmonella Typhi CMCC12055; experiment: MIC, antibacterial spectrum; assay type: cell-based; settings: Salmonella enterica
Procedure: as §2, §3

[14] = system: Enterococcus faecalis ATCC51299; experiment: MIC, antibacterial spectrum; assay type: cell-based
Procedure: as §2, §3

[15] = system: Neisseria gonorrhoeae ATCC49226; experiment: MIC, antibacterial spectrum; assay type: cell-based
Procedure: as §2, §3

[16] = system: Staphylococcus haemolyticus CICC23976; experiment: MIC, antibacterial spectrum; assay type: cell-based
Procedure: as §2, §3

[17] = system: Enterobacter cloacae ATCC13047; experiment: MIC, antibacterial spectrum; assay type: cell-based
Procedure: as §2, §3

[18] = system: Staphylococcus epidermidis ATCC35983; experiment: MIC, antibacterial spectrum; assay type: cell-based
Procedure: as §2, §3

[19] = system: Klebsiella pneumoniae ATCC BAA 2472; experiment: MIC, agar plate two-fold dilution; assay type: cell-based; settings: Klebsiella pneumoniae ATCC BAA 2472; MHA, 37°C, 16-20 hours
Procedure: as §1, §2

[20] = system: Escherichia coli. ATCC 25923; experiment: MIC, agar plate two-fold dilution; assay type: cell-based; settings: Escherichia coli. ATCC 25923; MHA, 37°C, 16-20 hours
Procedure: as §1, §2

[21] = system: Acinetobacter baumannii ARLG 1852; experiment: MIC, agar plate two-fold dilution; assay type: cell-based; settings: Acinetobacter baumannii ARLG 1852; MHA, 37°C, 16-20 hours
Procedure: as §1, §2

[22] = female, Sprague-Dawley, rat, in vivo, 15 mg/Kg, plasma

Cc1c(CN(C)C(=O)/C=C/c2cnc3c(c2)C2CC2(N)C(=O)N3)oc2c(C)cccc12 (stereo not drawn) [Compound 1b]
Tmax [1, 22]: 1.5 h | half-life [1, 22]: 2.57 h | F ([1]; 15 mg/Kg vs tail vein injection): 110% | Minimum Inhibitory Concentration MIC [2]: <0.008 µg/mL | Minimum Inhibitory Concentration MIC [3]: 0.12 µg/mL | Minimum Inhibitory Concentration MIC [4]: <0.008 µg/mL | IC50 [5]: 12 nM | IC50 [6]: 5 nM | MIC [7]: 32 µg/mL (≈ 76.8 µM) | antibacterial activity (in words) [8]: good antibacterial activity | MIC ([8]; ATCC29213): 0.25 µg/mL (≈ 0.6 µM) | antibacterial activity (in words) ([9]; Staphylococcus hominis): excellent antibacterial activity | MIC ([9]; Staphylococcus hominis ATCC27844): < 0.06 µg/mL | antibacterial activity (in words) ([10]; Moraxella catarrhalis): excellent antibacterial activity | MIC ([10]; Moraxella catarrhalis ATCC43617): < 0.06 µg/mL | MIC [11]: 8 µg/mL (≈ 19.2 µM) | MIC [12]: > 64 µg/mL | MIC [13]: 4 µg/mL (≈ 9.6 µM) | MIC [14]: > 64 µg/mL | MIC [15]: 8 µg/mL (≈ 19.2 µM) | MIC [16]: < 0.06 µg/mL | MIC [17]: 8 µg/mL (≈ 19.2 µM) | antibacterial activity (in words) ([18]; Staphylococcus epidermidis): excellent antibacterial activity | MIC ([18]; Staphylococcus epidermidis ATCC35983): < 0.06 µg/mL | Minimum Inhibitory Concentration MIC [19]: 16 µg/mL | Minimum Inhibitory Concentration MIC [20]: 4 µg/mL | Minimum Inhibitory Concentration MIC [21]: >32 µg/mL
